Assay results published in patent US12377104B1, “Methods for treating a fatty liver disease” (Madrigal Pharmaceuticals, Inc., priority 2024, dated 2025).

System: NASH patients
Experiment: MAESTRO-NASH: efficacy by baseline body weight and BMI
Type: in vivo, human
Conditions: for ≥30% Reduction in MRI-PDFF at Week 52, Assessment (%) / ≥120% Increase in SHBG at Week 52, Assessment (%): post hoc
Procedure: In the MAESTRO-NASH study, randomization to 80 mg and 100 mg doses was equal across all body weights. Analyses were conducted to provide additional evidence of a relationship between resmetirom dose, baseline body weight and body mass index (BMI), and safety/efficacy readouts. […] The only variable that determined exposure to resmetirom in the NASH population was body weight. […] Study median body weight was 100 kg. […] et al. (2024). CAP was stable over time, both doses showing a similar durable response (FIG. 30B).

[1] = Week 52 Paired Biopsies, 80 mg, >100 kg
[2] = Week 52 Paired Biopsies, 80 mg, ≤100 kg
[3] = Week 52 Paired Biopsies, 100 mg, >100 kg
[4] = Week 52 Paired Biopsies, 100 mg, ≤100 kg
[5] = Week 52 Primary Population, 80 mg, >100 kg
[6] = Week 52 Primary Population, 80 mg, ≤100 kg
[7] = Week 52 Primary Population, 100 mg, >100 kg
[8] = Week 52 Primary Population, 100 mg, ≤100 kg

## CC(C)c1cc(Oc2c(Cl)cc(-n3nc(C#N)c(=O)[nH]c3=O)cc2Cl)n[nH]c1=O [Resmetirom, 2-(3,5-dichloro-4-((5-isopropyl-6-oxo-1,6-dihydropyridazin-3-yl)oxy)phenyl)-3,5-dioxo-2,3,4,5-tetrahydro-1,2,4-triazine-6-carbonitrile]
100 mg, 80-<90 kg
  Week 52 Paired Biopsies Consensus NASH Resolution Responder: number: 16
  Week 52 Paired Biopsies Consensus NASH Resolution Responder: percentage (in parentheses): (39.0)
  ≥30% reduction in MRI-PDFF at Week 52: number of patients: 30
  ≥30% reduction in MRI-PDFF at Week 52: percentage of patients (in parentheses): (76.9)
  ≥120% increase in SHBG at Week 52: number of patients: 27
  ≥120% increase in SHBG at Week 52: percentage of patients (in parentheses): (62.8)
100 mg, 90-<100 kg
  Discontinued Study Prior to Week 52: number: 15
  Discontinued Study Prior to Week 52: percentage (in parentheses): (25.4)
  Week 52 MITT Consensus Fibrosis Improvement Responder: number: 12
  Week 52 MITT Consensus Fibrosis Improvement Responder: percentage (in parentheses): (20.3)
  Week 52 MITT Consensus NASH Resolution Responder: number: 13
  Week 52 MITT Consensus NASH Resolution Responder: percentage (in parentheses): (22.0)
  Week 52 Paired Biopsies Consensus Fibrosis Improvement Responder: number: 12
  Week 52 Paired Biopsies Consensus Fibrosis Improvement Responder: percentage (in parentheses): (29.3)
  Week 52 Paired Biopsies Consensus NASH Resolution Responder: number: 13
  Week 52 Paired Biopsies Consensus NASH Resolution Responder: percentage (in parentheses): (31.7)
  ≥30% reduction in MRI-PDFF at Week 52: number of patients: 24
  ≥30% reduction in MRI-PDFF at Week 52: percentage of patients (in parentheses): (70.6)
  ≥120% increase in SHBG at Week 52: number of patients: 28
  ≥120% increase in SHBG at Week 52: percentage of patients (in parentheses): (63.6)
100 mg, 100-<110 kg
  Discontinued Study Prior to Week 52: number: 9
  Discontinued Study Prior to Week 52: percentage (in parentheses): (17.6)
  Week 52 MITT Consensus Fibrosis Improvement Responder: number: 14
  Week 52 MITT Consensus Fibrosis Improvement Responder: percentage (in parentheses): (27.5)
  Week 52 MITT Consensus NASH Resolution Responder: number: 16
  Week 52 MITT Consensus NASH Resolution Responder: percentage (in parentheses): (31.4)
  Week 52 Paired Biopsies Consensus Fibrosis Improvement Responder: number: 14
  Week 52 Paired Biopsies Consensus Fibrosis Improvement Responder: percentage (in parentheses): (35.0)
  Week 52 Paired Biopsies Consensus NASH Resolution Responder: number: 16
  Week 52 Paired Biopsies Consensus NASH Resolution Responder: percentage (in parentheses): (40.0)
  ≥30% reduction in MRI-PDFF at Week 52: number of patients: 29
  ≥30% reduction in MRI-PDFF at Week 52: percentage of patients (in parentheses): (70.7)
  ≥120% increase in SHBG at Week 52: number of patients: 27
  ≥120% increase in SHBG at Week 52: percentage of patients (in parentheses): (62.8)
100 mg, <80 kg
  Discontinued Study Prior to Week 52: number: 12
  Discontinued Study Prior to Week 52: percentage (in parentheses): (21.4)
  Week 52 MITT Consensus Fibrosis Improvement Responder: number: 16
  Week 52 MITT Consensus Fibrosis Improvement Responder: percentage (in parentheses): (28.6)
  Week 52 MITT Consensus NASH Resolution Responder: number: 14
  Week 52 MITT Consensus NASH Resolution Responder: percentage (in parentheses): (25.0)
  Week 52 Paired Biopsies Consensus Fibrosis Improvement Responder: number: 16
  Week 52 Paired Biopsies Consensus Fibrosis Improvement Responder: percentage (in parentheses): (40.0)
  Week 52 Paired Biopsies Consensus NASH Resolution Responder: number: 14
  Week 52 Paired Biopsies Consensus NASH Resolution Responder: percentage (in parentheses): (35.0)
  ≥30% reduction in MRI-PDFF at Week 52: number of patients: 24
  ≥30% reduction in MRI-PDFF at Week 52: percentage of patients (in parentheses): (64.9)
  ≥120% increase in SHBG at Week 52: number of patients: 30
  ≥120% increase in SHBG at Week 52: percentage of patients (in parentheses): (68.2)
100 mg, body weight >100 kg
  ≥30% Reduction in MRI-PDFF at Week 52, Assessment (%): 72.5%
  ≥120% Increase in SHBG at Week 52, Assessment (%): 55.0%
100 mg, body weight ≤100 kg
  ≥30% Reduction in MRI-PDFF at Week 52, Assessment (%): 71.7%
  ≥120% Increase in SHBG at Week 52, Assessment (%): 64.2%
100 mg, ≥110 kg
  Discontinued Study Prior to Week 52: number: 18
  Discontinued Study Prior to Week 52: percentage (in parentheses): (16.7)
  Week 52 MITT Consensus Fibrosis Improvement Responder: number: 27
  Week 52 MITT Consensus Fibrosis Improvement Responder: percentage (in parentheses): (25.0)
  Week 52 MITT Consensus NASH Resolution Responder: number: 30
  Week 52 MITT Consensus NASH Resolution Responder: percentage (in parentheses): (27.8)
  Week 52 Paired Biopsies Consensus Fibrosis Improvement Responder: number: 27
  Week 52 Paired Biopsies Consensus Fibrosis Improvement Responder: percentage (in parentheses): (31.4)
  Week 52 Paired Biopsies Consensus NASH Resolution Responder: number: 30
  Week 52 Paired Biopsies Consensus NASH Resolution Responder: percentage (in parentheses): (34.9)
  ≥30% reduction in MRI-PDFF at Week 52: number of patients: 53
  ≥30% reduction in MRI-PDFF at Week 52: percentage of patients (in parentheses): (74.6)
  ≥120% increase in SHBG at Week 52: number of patients: 45
  ≥120% increase in SHBG at Week 52: percentage of patients (in parentheses): (50.6)
VCTE responder analyses at 1-3 years
  patients with worsening of VCTE: less than 10%
[1]
  Consensus Fibrosis Improvement, Assessment (%): 22.5%
  Consensus NASH Resolution, Assessment (%): 27.0%
[2]
  Consensus Fibrosis Improvement, Assessment (%): 35.4%
  Consensus NASH Resolution, Assessment (%): 32.0%
[3]
  Consensus Fibrosis Improvement, Assessment (%): 32.5%
  Consensus NASH Resolution, Assessment (%): 35.8%
[4]
  Consensus Fibrosis Improvement, Assessment (%): 33.6%
  Consensus NASH Resolution, Assessment (%): 36.0%
[5]
  Consensus Fibrosis Improvement, Assessment (%): 17.4%
  Consensus NASH Resolution, Assessment (%): 20.8%
[6]
  Consensus Fibrosis Improvement, Assessment (%): 29.2%
  Consensus NASH Resolution, Assessment (%): 26.4%
[7]
  Consensus Fibrosis Improvement, Assessment (%): 25.6%
  Consensus NASH Resolution, Assessment (%): 28.2%
[8]
  Consensus Fibrosis Improvement, Assessment (%): 25.1%
  Consensus NASH Resolution, Assessment (%): 26.9%
